The record followed here is patent publication US6784137B2, “6-aryl-4-aminopicolinates and their use as herbicides” (Dow AgroSciences LLC, priority 2001, dated 2004).

The melting point is the temperature of the solid-liquid transition.

The subject of one data set is Crabgrass(large) (Digitaria sanguinalis). Kind of data set: Preemergence herbicidal activity, soil spray. Type of data set: in vivo. The settings on record: Digitaria sanguinalis, pre-emergence, 504 h; Table 5; rate 560 ppm; visual score after 3 weeks; read-out: Pre-emergent % control DIGSA. In a few lines:
(§1)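 Seeds were sown in a 70:30 loam–sand mix (pH about 8.1, about 1.5% organic matter), and test compound from acetone:DMSO 97:3 stocks, diluted in 99.9:0.1 water:Tween 155, was sprayed evenly on the soil surface before emergence. Pots were held in a greenhouse under an approximate 15 hr photoperiod with top-irrigation.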
In the case of `COC(=O)c1nc(-c2ccc(C)c(C)c2)cc(N)c1Cl` [Compound 12, methyl 4-amino-3-chloro-6-(3,4-dimethylphenyl)pyridine-2-carboxylate], the pest or weed control at 560 ppm is 40%.
For `COC(=O)c1nc(-c2ccc(Cl)cc2)cc(NC(C)=O)c1Cl` [Compound 53, Methyl 4-acetamido-3-chloro-6-(4-chlorophenyl)pyridine-2-carboxylate], the pest or weed control at 560 ppm was 100%.
Regarding `COC(=O)c1nc(-c2cccc(C)c2)cc(N)c1Cl` [Compound 21, Methyl 4-amino-3-chloro-6-(3-methylphenyl)pyridine-2-carboxylate], the pest or weed control at 560 ppm stood at 100%.

In another data set the test system is Pigweed (redroot) (Amaranthus retroflexus). As to the kind of experiment: Preemergence herbicidal activity, soil spray. Type of data set: in vivo. The settings on record: Amaranthus retroflexus, pre-emergence, 504 h; Table 5; rate 560 ppm; visual score after 3 weeks; read-out: Pre-emergent % control AMARE. The method, boiled down: as §1
In the case of `COC(=O)c1nc(-c2ccc(C)c(C)c2)cc(N)c1Cl` [Compound 12, methyl 4-amino-3-chloro-6-(3,4-dimethylphenyl)pyridine-2-carboxylate], the pest or weed control at 560 ppm is 100%.
On the same count and under the same terms, for `COC(=O)c1nc(-c2ccc(Cl)cc2)cc(NC(C)=O)c1Cl` [Compound 53, Methyl 4-acetamido-3-chloro-6-(4-chlorophenyl)pyridine-2-carboxylate] the value was 100%; for `COC(=O)c1nc(-c2cccc(C)c2)cc(N)c1Cl` [Compound 21, Methyl 4-amino-3-chloro-6-(3-methylphenyl)pyridine-2-carboxylate], 100%.

A further data set relates to Giant Foxtail (Setaria faberi). As to the kind of experiment: Preemergence herbicidal activity, soil spray. As to conditions: Setaria faberi, pre-emergence, 504 h, Table 5; rate 560 ppm; visual score after 3 weeks; read-out: Pre-emergent % control SETFA. It is filed as in vivo. In a few lines: as §1
For `COC(=O)c1nc(-c2ccc(C)c(C)c2)cc(N)c1Cl` [Compound 12, methyl 4-amino-3-chloro-6-(3,4-dimethylphenyl)pyridine-2-carboxylate], the pest or weed control at 560 ppm worked out at 30%.
For `COC(=O)c1nc(-c2ccc(Cl)cc2)cc(NC(C)=O)c1Cl` [Compound 53, Methyl 4-acetamido-3-chloro-6-(4-chlorophenyl)pyridine-2-carboxylate], the pest or weed control at 560 ppm came to 100%.
As to `COC(=O)c1nc(-c2cccc(C)c2)cc(N)c1Cl` [Compound 21, Methyl 4-amino-3-chloro-6-(3-methylphenyl)pyridine-2-carboxylate], the pest or weed control at 560 ppm turned out to be 80%.

A further data set concerns Lambsquarter (Chenopodium album). As to the kind of experiment: Preemergence herbicidal activity, soil spray. As to conditions: Chenopodium album, pre-emergence, 504 h; Table 5; rate 560 ppm; visual score after 3 weeks, 100 complete kill or no germination; read-out: Pre-emergent % control CHEAL. Type of data set: in vivo. In a few lines:
as §1
For the molecule `COC(=O)c1nc(-c2ccc(C)c(C)c2)cc(N)c1Cl` [Compound 12, methyl 4-amino-3-chloro-6-(3,4-dimethylphenyl)pyridine-2-carboxylate], the pest or weed control at 560 ppm was 98%.
The same measure, in the same setting: in the case of `COC(=O)c1nc(-c2ccc(Cl)cc2)cc(NC(C)=O)c1Cl` [Compound 53, Methyl 4-acetamido-3-chloro-6-(4-chlorophenyl)pyridine-2-carboxylate] it was 100%.
In the case of `COC(=O)c1nc(-c2cccc(C)c2)cc(N)c1Cl` [Compound 21, Methyl 4-amino-3-chloro-6-(3-methylphenyl)pyridine-2-carboxylate], the pest or weed control at 560 ppm was 100%.

The test system of another data set is Wheat(var. Merica) (Triticum aestivum). As to the kind of experiment: Postemergence herbicidal activity, selectivity to wheat. Type of data set: in vivo. The settings on record: post-emergence, 336 h, Table 3, rate 62.5 (unit inferred), crop injury, read-out: Post-emergent % control TRZAS. How it is done:
(§2) Seeds of the desired test plant species were planted in Grace-Sierra MetroMix® 306 planting mixture, which typically has a pH of 6.0 to 6.8 and an organic matter content of about 30 percent, in plastic pots with a surface area of 64 square centimeters. When required to ensure good germination and healthy plants, a fungicide treatment and/or other chemical or physical treatment was applied. The plants were grown for 7-21 days in a greenhouse with an approximate 15 hr photoperiod which was maintained at about 23-29° C. during the day and 22-28° C. during the night. Nutrients and water were added on a regular basis and supplemental lighting was provided with overhead metal halide 1000-Watt lamps as necessary. The plants were employed for testing when they reached the first or second true leaf stage. A weighed amount, determined by the highest rate to be tested, of each test compound was placed in a 20 mL glass vial and was dissolved in 4 mL of a 97:3 v/v (volume/volume) mixture of acetone and dimethyl sulfoxide (DMSO) to obtain concentrated stock solutions. […] The concentrated stock solutions obtained were diluted with an aqueous mixture containing acetone, water, isopropyl alcohol, DMSO, At plus 411 F crop oil concentrate, and Triton X-155 surfactant in a 48.5:39:10:1.5:1.0:0.02 v/v ratio to obtain spray solutions of known concentration. The solutions containing the highest concentration to be tested were prepared by diluting 2 mL aliquots of the stock solution with 13 mL of the mixture and lower concentrations were prepared by serial dilution of the stock solution. Approximately 1.5 mL aliquots of each solution of known concentration were sprayed evenly onto each of the test plant pots using a DeVilbiss atomizer driven by compressed air pressure of […] (140 to 280 kiloPascals) to obtain thorough coverage of each plant. Control plants were sprayed in the same manner with the aqueous mixture. In this test an application rate of 1 ppm results in the application of approximately 1 g/Ha. The treated plants and control plants were placed in a greenhouse as described above and watered by sub-irrigation to prevent wash-off of the test compounds. After 2 weeks the condition of the test plants as compared with that of the untreated plants was determined visually and scored on a scale of 0 to 100 percent where 0 corresponds to no injury and 100 corresponds to complete kill.
Regarding `COC(=O)c1nc(-c2ccc(C)c(C)c2)cc(N)c1Cl` [Compound 12, methyl 4-amino-3-chloro-6-(3,4-dimethylphenyl)pyridine-2-carboxylate], the pest or weed control at 62.5 µg/mL was determined as 0%.
Turning to `COC(=O)c1nc(-c2ccc(Cl)cc2)cc(NC(C)=O)c1Cl` [Compound 53, Methyl 4-acetamido-3-chloro-6-(4-chlorophenyl)pyridine-2-carboxylate], the pest or weed control at 62.5 µg/mL amounted to 0%.
`COC(=O)c1nc(-c2cccc(C)c2)cc(N)c1Cl` [Compound 21, Methyl 4-amino-3-chloro-6-(3-methylphenyl)pyridine-2-carboxylate]: the pest or weed control at 62.5 µg/mL worked out at 10%.

Tested on in a further data set: not given
Experiment: not given
Conditions: not given
Molecule `COC(=O)c1nc(-c2ccc(C)c(C)c2)cc(N)c1Cl` [Compound 12, methyl 4-amino-3-chloro-6-(3,4-dimethylphenyl)pyridine-2-carboxylate] displayed a melting point of 154 to 156 °C.
For the molecule `COC(=O)c1nc(-c2ccc(Cl)cc2)cc(NC(C)=O)c1Cl` [Compound 53, Methyl 4-acetamido-3-chloro-6-(4-chlorophenyl)pyridine-2-carboxylate], the melting point was 151 to 152 °C.
For `COC(=O)c1nc(-c2cccc(C)c2)cc(N)c1Cl` [Compound 21, Methyl 4-amino-3-chloro-6-(3-methylphenyl)pyridine-2-carboxylate], the melting point came out at 98 °C.

Another data set concerns Yellow nutsedge (Cyperus esculentus). As to the kind of experiment: Postemergence herbicidal activity, greenhouse spray. Type of data set: in vivo. The settings on record: Cyperus, post-emergence, 336 h, Table 1; rate 250 ppm; visual score after 2 weeks; read-out: Post-emergent % control CYPES. In a few lines: (§3)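 Postemergence application by compressed-air atomizer ([…]) onto plants at the 1-2 true leaf stage; rates set by serial dilution of acetone:DMSO stock into the spray carrier. Plants were kept in a greenhouse with ~15 hr photoperiod and sub-irrigated.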
Regarding `COC(=O)c1nc(-c2cccc(C)c2)cc(N)c1Cl` [Compound 21, Methyl 4-amino-3-chloro-6-(3-methylphenyl)pyridine-2-carboxylate], the pest or weed control at 250 ppm came out at 70%.

The data set is the same for the next values; noted with them: Cyperus, post-emergence, 336 h, Table 1; rate 500 ppm; visual score after 2 weeks; read-out: Post-emergent % control CYPES.
In the case of `COC(=O)c1nc(-c2ccc(C)c(C)c2)cc(N)c1Cl` [Compound 12, methyl 4-amino-3-chloro-6-(3,4-dimethylphenyl)pyridine-2-carboxylate], the pest or weed control at 500 ppm worked out at 30%.

For the next data set, the system named is Pigweed (redroot) (Amaranthus retroflexus). Described as above. Type of data set: in vivo. As to conditions: Amaranthus retroflexus, post-emergence, 336 h; Table 3; rate 62.5 (unit inferred); visual score after 2 weeks; read-out: Post-emergent % control AMARE. In a few lines: as §3
`COC(=O)c1nc(-c2ccc(C)c(C)c2)cc(N)c1Cl` [Compound 12, methyl 4-amino-3-chloro-6-(3,4-dimethylphenyl)pyridine-2-carboxylate]: the pest or weed control at 62.5 µg/mL amounted to 70%.
In the case of `COC(=O)c1nc(-c2ccc(Cl)cc2)cc(NC(C)=O)c1Cl` [Compound 53, Methyl 4-acetamido-3-chloro-6-(4-chlorophenyl)pyridine-2-carboxylate], the pest or weed control at 62.5 µg/mL came to 70%.
Consider `COC(=O)c1nc(-c2cccc(C)c2)cc(N)c1Cl` [Compound 21, Methyl 4-amino-3-chloro-6-(3-methylphenyl)pyridine-2-carboxylate], for which the pest or weed control at 62.5 µg/mL is 70%.

The data set is the same for the next values; noted with them: Table 4; rate 62.5 (unit not given); visual score after 2 weeks.
Take `COC(=O)c1nc(-c2ccc(C)c(C)c2)cc(N)c1Cl` [Compound 12, methyl 4-amino-3-chloro-6-(3,4-dimethylphenyl)pyridine-2-carboxylate]: the “Post-emergent % control AMARE” value came out at 70%.
Take `COC(=O)c1nc(-c2ccc(Cl)cc2)cc(NC(C)=O)c1Cl` [Compound 53, Methyl 4-acetamido-3-chloro-6-(4-chlorophenyl)pyridine-2-carboxylate]: the “Post-emergent % control AMARE” value stood at 70%.
With `COC(=O)c1nc(-c2cccc(C)c2)cc(N)c1Cl` [Compound 21, Methyl 4-amino-3-chloro-6-(3-methylphenyl)pyridine-2-carboxylate], the “Post-emergent % control AMARE” value stood at 70%.

The subject of another data set is Cocklebur (Xanthium strumarium). The data set is described as above. It is filed as in vivo. The settings on record: Xanthium strumarium, post-emergence, 336 h; Table 1; rate 250 ppm; visual score after 2 weeks; read-out: Post-emergent % control XANST. In a few lines: as §3
`COC(=O)c1nc(-c2cccc(C)c2)cc(N)c1Cl` [Compound 21, Methyl 4-amino-3-chloro-6-(3-methylphenyl)pyridine-2-carboxylate]: the pest or weed control at 250 ppm was found to be 100%.

The data set is the same for the next values; noted with them: Xanthium strumarium, post-emergence, 336 h; Table 1; rate 500 ppm; visual score after 2 weeks, 0 no injury, 100 complete kill; read-out: Post-emergent % control XANST.
Turning to `COC(=O)c1nc(-c2ccc(C)c(C)c2)cc(N)c1Cl` [Compound 12, methyl 4-amino-3-chloro-6-(3,4-dimethylphenyl)pyridine-2-carboxylate], the pest or weed control at 500 ppm amounted to 100%.

Another data set relates to Barnyardgrass (Echinochloa crus-galli). The data set is described as above. As to conditions: Echinochloa crus-galli, post-emergence, 336 h, Table 1; rate 250 ppm; visual score after 2 weeks; read-out: Post-emergent % control ECHCG. Type of data set: in vivo. In a few lines: as §3
On to `COC(=O)c1nc(-c2cccc(C)c2)cc(N)c1Cl` [Compound 21, Methyl 4-amino-3-chloro-6-(3-methylphenyl)pyridine-2-carboxylate], for which the pest or weed control at 250 ppm came out at 0%.

The data set is the same for the next values; noted with them: Echinochloa crus-galli, post-emergence, 336 h, Table 1; rate 500 ppm; visual score after 2 weeks; read-out: Post-emergent % control ECHCG.
Regarding `COC(=O)c1nc(-c2ccc(C)c(C)c2)cc(N)c1Cl` [Compound 12, methyl 4-amino-3-chloro-6-(3,4-dimethylphenyl)pyridine-2-carboxylate], the pest or weed control at 500 ppm was 95%.

The subject of another data set is Lambsquarter (Chenopodium album). Described as above. It is filed as in vivo. As to conditions: Chenopodium album, post-emergence, 336 h; Table 1; rate 250 ppm; visual score after 2 weeks; read-out: Post-emergent % control CHEAL. The method, boiled down: as §3
As for `COC(=O)c1nc(-c2cccc(C)c2)cc(N)c1Cl` [Compound 21, Methyl 4-amino-3-chloro-6-(3-methylphenyl)pyridine-2-carboxylate], the pest or weed control at 250 ppm was 100%.

The same data set, now with this note: Chenopodium album, post-emergence, 336 h; Table 1; rate 500 ppm; visual score after 2 weeks; read-out: Post-emergent % control CHEAL.
As for `COC(=O)c1nc(-c2ccc(C)c(C)c2)cc(N)c1Cl` [Compound 12, methyl 4-amino-3-chloro-6-(3,4-dimethylphenyl)pyridine-2-carboxylate], the pest or weed control at 500 ppm was 95%.

The next data set has as its system Corn (#14 3377) (Zea mays). Kind of data set: Postemergence herbicidal activity, selectivity to corn. Type of data set: in vivo. As to conditions: post-emergence, 336 h, Table 4, rate 62.5 (unit inferred), crop injury, read-out: Post-emergent % control ZEAMX. How it is done:
as §2
Turning to `COC(=O)c1nc(-c2ccc(C)c(C)c2)cc(N)c1Cl` [Compound 12, methyl 4-amino-3-chloro-6-(3,4-dimethylphenyl)pyridine-2-carboxylate], the pest or weed control at 62.5 µg/mL is 10%.
In the case of `COC(=O)c1nc(-c2ccc(Cl)cc2)cc(NC(C)=O)c1Cl` [Compound 53, Methyl 4-acetamido-3-chloro-6-(4-chlorophenyl)pyridine-2-carboxylate], the pest or weed control at 62.5 µg/mL is 10%.
Take `COC(=O)c1nc(-c2cccc(C)c2)cc(N)c1Cl` [Compound 21, Methyl 4-amino-3-chloro-6-(3-methylphenyl)pyridine-2-carboxylate]: the pest or weed control at 62.5 µg/mL is 0%.
